From patent publication US20260130928A1, “COMBINATION OF AKR1C3 ACTIVATED ANTICANCER PRODRUG COMPOUND AND ANALGESIC DRUG FOR TREATING CANCER PATIENTS ACCOMPANIED BY PAIN” (ASCENTAWITS PHARMACEUTICALS, LTD., priority 2022, published 2026)
Where two headings read alike, the source gives them in different places.

How the values were obtained:
[1] = tested on: human lung cancer NCI-H460; assay: Pharmacodynamics in subcutaneous xenograft model of human lung cancer NCI-H460 (tumor volume, TGI); format: in vivo, BALB/c nude mice
Description: Measures of pharmacodynamics of AST-3424 monotherapy and combination therapy with Celecoxib were performed in a subcutaneous xenograft model of human lung cancer NCI-H460 established by using female BALB/c nude mice.
After the inoculation of tumor cell, tumor growth was routinely monitored, and tumor volume and mouse weight were measured. Evaluation of therapeutic efficiency was based on the relative tumor growth inhibition TGI (%). The specific results are shown in Table 3 and FIG. 3, and the Pharmacodynamics analysis data on Day 30 after inoculation (at the end of drug administration) are particularly given in Table 4.

[2] = read-out: Cmax converted to the molar concentration; celecoxib single dosage (200 mg) in healthy subjects
[3] = cited from earlier work
[4] = Body weight / tolerance of mice in the human lung cancer NCI-H460 model
Description: BALB/c nude mice were subcutaneously inoculated with human lung cancer NCI-H460 cells to establish the subcutaneous transplant tumor model of human lung cancer. The experiment was assigned to seven groups, with 5 mice in each group: the test drug Celecoxib 50 mg/kg and 100 mg/kg groups, the AST-3424 2.5 mg/kg group, and different combination therapy groups of Celecoxib 50 mg/kg or 100 mg/kg and AST-3424 2.5 mg/kg, and the 0.5% sodium carboxymethylcellulose vehicle control group. […] The AST-3424 2.5 mg/kg group was administered by tail vein injection once a week for a total of three weeks, and observed for 7 days. In the combination therapy groups of Celecoxib 50 mg/kg or 100 mg/kg and AST-3424 2.5 mg/kg, Celecoxib was administered by gavage once a day for a total of 15 days, and AST-3424 was administered by tail vein injection once a week for a total of three weeks, and observed for 7 days.

clinical = settings: human, in vivo
H460 cell line = assay: In vitro cell proliferation inhibition with the drug combination (CTG method); format: cell-based, human; settings: combined with AST-3424
Description: • a) H460 cells (human non-small lung cancer cells, AKR1C3 enzyme highly expressed) were cultured in RPMI-1640 medium, added with 10% FBS and 1% double antibody, and placed at 37° C. and 5% CO2 for culturing.
• a) The cells were routinely cultured until the cell saturation was 80%-90%, and when the required quantity was reached, the cells were collected. • b) The cells were resuspended with the corresponding medium and cell counts were performed to prepare a cell suspension with appropriate density. • c) The cell suspension was added to a 96-well plate with 100 μL per well, and the cell density was 2,000 cells per well. • d) The cells were incubated overnight in an incubator at 37° C. with 5% CO2. 1.1.3 Treating Cells with Compound (72 Hours)
AST-3424 alone: after 24 hours of cell seeding, AST-3424 was administered alone. Specifically, each well was supplemented with 99 μL of growth medium, and then added with 1 μL of the prepared AST-3424 solution to form different concentrations of AST-3424. The plate was shaken gently to ensure uniform mixing, and placed in an incubator at 37° C. with 5% CO2.
The cell plates were placed in the incubator for 72 hours.
1.1.4 Treating Cells with Compound (2 Hours) • a) Administrating single drug: after 24 hours of cell seeding, AST-3424 was administered alone. Specifically, each well was supplemented with 99 μL of growth medium, and then added with 1 μL of the prepared AST-3424 solution to form different concentrations of AST-3424. The plate was shaken gently to ensure uniform mixing, and placed in the incubator for 2 hours. […] The plate was shaken gently to ensure uniform mixing. After the plate was placed in the incubator for 2 hours, 1 μL of the prepared AST-3424 solution was added to form different concentrations of AST-3424. The plate was shaken gently to ensure uniform mixing, and placed in the incubator at 37° C. with 5% CO2 for another 2 hours. Then, the supernatant was discarded, and the remainder was washed twice with growth medium and added with 200 μL of fresh medium.
1.1.6 Detecting with CTG Method • a) The cell plate to be tested was placed at room temperature to equilibrium for 30 minutes, and 100 μL of culture medium was discarded from each well. • b) 25 μL CTG reagent (CelltiterGlo kit) was added to each well. The plate was placed on a fast shaker to shake for 2 minutes, and then placed at room temperature away from light for 30 minutes. • c) The chemiluminescent signal value was read with multifunctional microplate reader at reading time of 1000 ms.
IC50 was calculated with GraphPad Prism 5 software, and the IC50 (half maximal inhibitory concentration) of the compound was obtained using the following nonlinear fitting formula: […]

AKR1C3 = settings: reported in literature; cited from earlier work
[5] = Group 2: Celecoxib 50 mg/kg QD×15 p.o., Day 30 after inoculation
[6] = Group 3: Celecoxib 100 mg/kg QD×15 p.o., Day 30 after inoculation
[7] = Group 2: Celecoxib 50 mg/kg QD×15 p.o., Day 37 after the inoculation of tumor cell
[8] = Group 3: Celecoxib 100 mg/kg QD×15 p.o., Day 37 after the inoculation of tumor cell

SMILES: Cc1ccc(-c2cc(C(F)(F)F)nn2-c2ccc(S(N)(=O)=O)cc2)cc1 [Celecoxib]
- Tumor volume (x ± S) ([1]; Group 2: Celecoxib 50 mg/kg QD×15 p.o., Day 9 after cell inoculation): 145.68 ± 12.36 mm^3
- Tumor volume (x ± S) ([1]; Group 2: Celecoxib 50 mg/kg QD×15 p.o., Day 12 after cell inoculation): 162.55 ± 9.74 mm^3
- Tumor volume (x ± S) ([1]; Group 2: Celecoxib 50 mg/kg QD×15 p.o., Day 16 after cell inoculation): 175.22 ± 11.61 mm^3
- Tumor volume (x ± S) ([1]; Group 2: Celecoxib 50 mg/kg QD×15 p.o., Day 19 after cell inoculation): 214.83 ± 26.19 mm^3
- Tumor volume (x ± S) ([1]; Group 2: Celecoxib 50 mg/kg QD×15 p.o., Day 23 after cell inoculation): 361.15 ± 68.57 mm^3
- Tumor volume (x ± S) ([1]; Group 2: Celecoxib 50 mg/kg QD×15 p.o., Day 26 after cell inoculation): 471.39 ± 90.94 mm^3
- Tumor volume (x ± S) ([1]; Group 2: Celecoxib 50 mg/kg QD×15 p.o., Day 30 after cell inoculation): 577.49 ± 102.95 mm^3
- Relative tumor volume (x ± S) [1, 5]: 3.91 ± 0.45
- T/C (%) [1, 5]: 70.13%
- TGI (%) [1, 5]: 29.87%
- Tumor volume (x ± S) ([1]; Group 2: Celecoxib 50 mg/kg QD×15 p.o., Day 30 after inoculation, in mm³): 577.49 ± 102.95
- Tumor volume (x ± S) ([1]; Group 2: Celecoxib 50 mg/kg QD×15 p.o., Day 33 after cell inoculation): 655.39 ± 126.55 mm^3
- Tumor volume (x ± S) ([1]; Group 2: Celecoxib 50 mg/kg QD×15 p.o., Day 37 after cell inoculation): 1053.12 ± 274.37 mm^3
- Tumor volume (x ± S) ([1]; Group 3: Celecoxib 100 mg/kg QD×15 p.o., Day 9 after cell inoculation): 144.13 ± 11.94 mm^3
- Tumor volume (x ± S) ([1]; Group 3: Celecoxib 100 mg/kg QD×15 p.o., Day 12 after cell inoculation): 166.97 ± 17.80 mm^3
- Tumor volume (x ± S) ([1]; Group 3: Celecoxib 100 mg/kg QD×15 p.o., Day 16 after cell inoculation): 233.79 ± 48.62 mm^3
- Tumor volume (x ± S) ([1]; Group 3: Celecoxib 100 mg/kg QD×15 p.o., Day 19 after cell inoculation): 331.06 ± 73.94 mm^3
- Tumor volume (x ± S) ([1]; Group 3: Celecoxib 100 mg/kg QD×15 p.o., Day 23 after cell inoculation): 479.72 ± 117.21 mm^3
- Tumor volume (x ± S) ([1]; Group 3: Celecoxib 100 mg/kg QD×15 p.o., Day 26 after cell inoculation): 581.86 ± 130.92 mm^3
- Tumor volume (x ± S) ([1]; Group 3: Celecoxib 100 mg/kg QD×15 p.o., Day 30 after cell inoculation): 730.52 ± 183.64 mm^3
- Relative tumor volume (x ± S) [1, 6]: 4.86 ± 0.82
- T/C (%) [1, 6]: 87.16%
- TGI (%) [1, 6]: 12.84%
- Tumor volume (x ± S) ([1]; Group 3: Celecoxib 100 mg/kg QD×15 p.o., Day 30 after inoculation, in mm³): 730.52 ± 183.64
- Tumor volume (x ± S) ([1]; Group 3: Celecoxib 100 mg/kg QD×15 p.o., Day 33 after cell inoculation): 867.83 ± 225.15 mm^3
- Tumor volume (x ± S) ([1]; Group 3: Celecoxib 100 mg/kg QD×15 p.o., Day 37 after cell inoculation): 1459.88 ± 505.50 mm^3
- Cmax [2]: 1850 nM
- Cmax ([3]; celecoxib single dosage (200 mg) in healthy subjects, drug instructions): 705 ng/mL
- Mean body weight g (x ± S) ([4]; Group 2: Celecoxib 50 mg/kg QD×15 p.o., Day 9 after the inoculation of tumor cell): 24.8 ± 0.5 g
- Change of body weight (%) [4, 7]: 4.05%
- Mean body weight g (x ± S) [4, 7]: 25.8 ± 0.4 g
- Mean body weight g (x ± S) ([4]; Group 3: Celecoxib 100 mg/kg QD×15 p.o., Day 9 after the inoculation of tumor cell): 25.2 ± 0.5 g
- Change of body weight (%) [4, 8]: 2.28%
- Mean body weight g (x ± S) [4, 8]: 25.8 ± 0.6 g

SMILES: CC(C)Cc1ccc(C(C)C(=O)O)cc1 (centres unmarked) [Ibuprofen]
- Cmax ([3]; ibuprofen reference preparation, single dose, fasting, healthy Chinese subjects): 19400 ng/mL
- Cmax (clinical): 94 µM
- effect of the combination on the cell proliferation inhibitory activity of AST-3424 (H460 cell line): almost no effect
- AKR1C3 inhibitory activity (AKR1C3): have AKR1C3 inhibitory activity
